Paper PMC7899551, “Phase 1 study of Z-endoxifen in patients with advanced gynecologic, desmoid, and hormone receptor-positive solid tumors” (Oncotarget, 2021)
Several values for one entry are separate records, joined by “and”; a condition that tells them apart may be missing. Equal values may be shown once. Read-outs that look alike come from different tables or passages of the source.

Test: Plasma pharmacokinetics of Z-endoxifen (HPLC assay, non-compartmental analysis)
Type: in vivo, human
Method: This was an open-label trial of Z-endoxifen in patients with advanced solid tumors (https://clinicaltrials.gov/ identifier: NCT01273168). Z-endoxifen-HCl was supplied by the Pharmaceutical Management Branch, National Cancer Institute, as 20 and 40 mg capsules; agent was administered orally once daily on a continuous schedule in 28-day cycles with a starting dose of 20 mg/day taken either 1 hour before or 2 hours after meals. Dose escalation followed a traditional 3+3 design in which patients were dose-escalated to the next dose level (DL) in cohorts of 3 patients until dose-limiting toxicity (DLT) was observed. DLT was defined as an adverse event that occurred during cycle 1, was thought to be related to study drug administration, and met one of the following criteria: grade ≥ 3 non-hematologic toxicities (except diarrhea, nausea and vomiting, alopecia, rising creatinine or electrolyte toxicities that resolved within 24 hours, or intolerable estrogen withdrawal symptoms) or grade ≥ 3 hematologic toxicities (except neutropenia lasting less than 5 days, lymphopenia, or anemia). Eight dose levels (DL1-8) were examined: 20, 40, 60, 100, 140, 200, 280, and 360 mg, respectively. Two patients at DL8 received the free base form of Z-endoxifen on day 1 rather than the hydrochloride salt to assess the pharmacokinetics of that formulation.
A 3-mL blood sample was collected in a K2 EDTA tube on day 1 of cycle 1 before drug administration and at the following times post-first dose: 0.5, 1, 2, 3, 4, 6, 8, and 24 hours. Samples were collected at the same time points on day 28 of cycle 1 for DL1-6 until a protocol amendment eliminated the requirement for these samples at the higher dose levels. Samples were wrapped in aluminum foil after collection to protect from light exposure. A 10-mL aliquot of urine was collected before agent administration on cycle 1 day 1, for 24 hours after dosing on day 1, and before drug administration on cycle 2 day 1; samples were refrigerated prior to analysis.
Plasma and urine concentrations of Z- and E-endoxifen were measured using a validated, post-column fluorescence derivatization HPLC assay. Non-compartmental pharmacokinetic parameters were calculated using WinNonlin version 7.0 (Pharsight Corp., Mountainview, CA, USA). A 2 μM Cmax target was established for day 28 plasma concentration. The amount of Z-endoxifen excreted in urine was measured over a 24-hour collection period.

[1] = DL1 20 mg oral, day 1, individual patients, listed as Z-endoxifen HCl
[2] = DL1 20 mg/day oral, day 28, individual patients, listed as Z-endoxifen HCl
[3] = DL2 40 mg oral, day 1, individual patients, listed as Z-endoxifen HCl
[4] = DL2 40 mg/day oral, day 28, individual patients, listed as Z-endoxifen HCl
[5] = DL3 60 mg oral, day 1, individual patients, listed as Z-endoxifen HCl
[6] = DL3 60 mg/day oral, day 28, individual patients, listed as Z-endoxifen HCl
[7] = DL4 100 mg oral, day 1, individual patients, listed as Z-endoxifen HCl
[8] = DL5 140 mg oral, day 1, individual patients, listed as Z-endoxifen HCl
[9] = DL5 140 mg/day oral, day 28, individual patients, listed as Z-endoxifen HCl
[10] = DL6 200 mg oral, day 1, individual patients, listed as Z-endoxifen HCl
[11] = DL6 200 mg/day oral, day 28, individual patients, listed as Z-endoxifen HCl
[12] = DL7 280 mg oral, day 1, individual patients, listed as Z-endoxifen HCl
[13] = DL8 360 mg oral, day 1, individual patients, listed as Z-endoxifen HCl

CC/C(=C(\c1ccc(O)cc1)c1ccc(OCCNC)cc1)c1ccccc1 [Z-endoxifen]
AUC(0-24h) [1]: 1055 ng·h/mL and 1169 ng·h/mL | C24h [1]: 32.6 ng/mL and 32.7 ng/mL | Cmax [1]: 61.2 ng/mL and 67.7 ng/mL | AUC(0-24h) [2]: 4469 ng·h/mL and 5313 ng·h/mL | Adjusted Half-Life [2]: 61.8 h and 67.0 h | C24h [2]: 48.8 ng/mL and 139.6 ng/mL and 206.6 ng/mL | Cmax [2]: 283.7 ng/mL and 374.1 ng/mL | Tmax [2]: 0.0 h | AUC(0-24h) [3]: 1715 ng·h/mL and 1336 ng·h/mL and 1764 ng·h/mL and 2162 ng·h/mL | C24h [3]: 43.6 ng/mL and 54.9 ng/mL and 33.7 ng/mL and 55.2 ng/mL and 75 ng/mL | Cmax [3]: 121.1 ng/mL and 93.8 ng/mL and 102.3 ng/mL and 160.3 ng/mL | AUC(0-24h) [4]: 3871 ng·h/mL and 4832 ng·h/mL | Adjusted Half-Life [4]: 36.6 h | C24h [4]: 111.8 ng/mL and 194.5 ng/mL | Cmax [4]: 231.8 ng/mL and 220.7 ng/mL | Tmax [4]: 3.0 h | Adjusted Half-Life, Mean (DL2 40 mg/day oral, day 28, mean): 40.4 h | AUC(0-24h) [5]: 1953 ng·h/mL and 2836 ng·h/mL | C24h [5]: 72.2 ng/mL and 86.2 ng/mL | Cmax [5]: 109.0 ng/mL and 166.0 ng/mL | Tmax [5]: 24.0 h and 6.1 h | AUC(0-24h) [6]: 3432 ng·h/mL and 9961 ng·h/mL and 10846 ng·h/mL | Adjusted Half-Life [6]: 26.0 h and 76.2 h and 54.9 h | C24h [6]: 169.4 ng/mL and 521.2 ng/mL and 345.6 ng/mL | Cmax [6]: 199.6 ng/mL and 521.2 ng/mL and 531.1 ng/mL | Tmax [6]: 0.5 h and 24.0 h | Adjusted Half-Life, Mean (DL3 60 mg/day oral, day 28, mean): 52.4 h | AUC(0-24h) [7]: 4834 ng·h/mL and 5511 ng·h/mL | C24h [7]: 157 ng/mL and 175 ng/mL | Cmax [7]: 301 ng/mL and 324 ng/mL | Cmax (DL4 100 mg/day oral, day 28, individual patients, listed as Z-endoxifen HCl): 719 ng/mL | AUC(0-24h) [8]: 7200 ng·h/mL and 14650 ng·h/mL and 7425 ng·h/mL | C24h [8]: 209 ng/mL and 509 ng/mL and 216 ng/mL | Cmax [8]: 380 ng/mL and 957 ng/mL and 494 ng/mL | AUC(0-24h) [9]: 16591 ng·h/mL | Adjusted Half-Life [9]: 28.1 h | C24h [9]: 528 ng/mL | Cmax [9]: 1485 ng/mL and 881 ng/mL | Tmax [9]: 3.0 h | AUC(0-24h) [10]: 12520 ng·h/mL and 8804 ng·h/mL | C24h [10]: 457 ng/mL and 271 ng/mL | Cmax [10]: 299 ng/mL and 760 ng/mL and 492 ng/mL | AUC(0-24h) [11]: 16690 ng·h/mL and 52925 ng·h/mL and 22641 ng·h/mL | Adjusted Half-Life [11]: 61.6 h and 33.8 h | C24h [11]: 787 ng/mL and 1814 ng/mL and 606 ng/mL | Cmax [11]: 984 ng/mL and 2574 ng/mL and 1364 ng/mL | mean C24 h relative to the 5.9 ng/mL threshold associated with clinical benefit on tamoxifen (DL6, Day 28): more than 180 fold | AUC(0-24h) [12]: 15935 ng·h/mL and 10460 ng·h/mL and 11355 ng·h/mL and 13153 ng·h/mL and 13081 ng·h/mL and 24217 ng·h/mL and 16532 ng·h/mL | C24h [12]: 485 ng/mL and 345 ng/mL and 384 ng/mL and 467 ng/mL and 337 ng/mL and 687 ng/mL and 574 ng/mL | Cmax [12]: 825 ng/mL and 715 ng/mL and 887 ng/mL and 796 ng/mL and 1395 ng/mL and 1007 ng/mL | Tmax (DL8 360 mg oral, day 1, individual patients): 3.0 h | AUC(0-24h) [13]: 32079 ng·h/mL and 21926 ng·h/mL and 23576 ng·h/mL and 20747 ng·h/mL and 22520 ng·h/mL and 9274 ng·h/mL and 13704 ng·h/mL | C24h [13]: 1190 ng/mL and 722 ng/mL and 653 ng/mL and 801 ng/mL and 658 ng/mL and 213 ng/mL and 493 ng/mL | Cmax [13]: 1841 ng/mL and 1352 ng/mL and 1374 ng/mL and 1432 ng/mL and 1437 ng/mL and 780 ng/mL and 948 ng/mL | Tmax [13]: 3.0 h | Cmax, Mean (HCl salt, 360 mg oral, day 2 (after free base on day 1), mean of patients 35 and 36): 2360 ng/mL | AUC(0–24 h) (HCl salt, 360 mg oral, day 2 (after free base on day 1), patients 35 and 36 individually, listed as Z-endoxifen HCl): 23709 ng·h/mL and 59421 ng·h/mL | plasma concentration achieved by all patients (all dose levels): > 5.97 ng/mL | AUC(0–24h) dependence on dose (day 1, DL1-8): linear increase with dose | concentration at 24 h (human, plasma, oral, 20 mg, DL1, calculated from C24h in ng/mL, read-out: Plasma concentration 24 hours after the first dose): 67 nM | concentration at 28 day (human, plasma, oral, 20 mg, DL1, read-out: day 28 trough concentration, range): 48.8 to 207 ng/mL | concentration at 28 day (human, plasma, oral, 20 mg/day, DL1 (20 mg/day), day 28, read-out: average plasma concentration): 353 nM | concentration at 28 day (human, plasma, oral, 360 mg, DL8, if accumulation similar to lower dose levels, read-out: estimated day 28 concentration): 1220 ng/mL to 2970 ng/mL and 3.3 µM to 7.9 µM | concentration at 24 h (human, plasma, oral, 360 mg, DL8, calculated from C24h in ng/mL, read-out: Plasma concentration 24 hours after the first dose): 1810 nM | half-life (human, plasma, oral, range over dose levels, read-out: elimination half-life (t½)): 30.6 to 55.9 h | AUC(0-t) (human, plasma, po, 20 mg, DL1 20 mg oral, day 1, individual patients, read-out: AUC(0-24h)): 1030 ng·h/mL | concentration at 24 h (human, plasma, po, 20 mg, DL1 20 mg oral, day 1, individual patients, read-out: C24h): 25.2 ng/mL | Cmax (human, plasma, po, 20 mg, DL1 20 mg oral, day 1, individual patients, read-out: Cmax): 76.9 ng/mL | Tmax (human, plasma, po, 20 mg, DL1 20 mg oral, day 1, individual patients, read-out: Tmax): 3 h | AUC(0-t) (human, plasma, po, 20 mg, DL1 20 mg oral, day 1, mean, read-out: AUC(0-24h), Mean): 1080 ng·h/mL | concentration at 24 h (human, plasma, po, 20 mg, DL1 20 mg oral, day 1, mean, read-out: C24h, Mean): 30.2 ng/mL | Cmax (human, plasma, po, 20 mg, DL1 20 mg oral, day 1, mean, read-out: Cmax, Mean): 68.6 ng/mL | Tmax (human, plasma, po, 20 mg, DL1 20 mg oral, day 1, mean, read-out: Tmax, Mean): 3.7 h | AUC(0-t) (human, plasma, po, 20 mg/day, DL1 20 mg/day oral, day 28, individual patients, read-out: AUC(0-24h)): 2960 ng·h/mL | half-life (human, plasma, po, 20 mg/day, DL1 20 mg/day oral, day 28, individual patients, read-out: Adjusted Half-Life (converted)): 38.9 h | Cmax (human, plasma, po, 20 mg/day, DL1 20 mg/day oral, day 28, individual patients, read-out: Cmax): 201 ng/mL | AUC(0-t) (human, plasma, po, 20 mg/day, DL1 20 mg/day oral, day 28, mean, read-out: AUC(0-24h), Mean): 4250 ng·h/mL | half-life (human, plasma, po, 20 mg/day, DL1 20 mg/day oral, day 28, mean, read-out: Adjusted Half-Life, Mean (converted)): 55.9 h | concentration at 24 h (human, plasma, po, 20 mg/day, DL1 20 mg/day oral, day 28, mean, read-out: C24h, Mean): 132 ng/mL
